system: HBV rcDNA; assay: HepDE19 assay with bDNA quantitation of HBV rcDNA; format: cell-based, hepatitis B virus; conditions: HepDE19 assay, inhibition of formation of rcDNA; read-out: DE-19bDNA EC50
Procedure, shortened: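 Compounds, top concentration 25 μM in 8-point duplicate series, were applied to Tet-free HepDE19 cultures for 7 days. Branched-DNA quantitation of HBV rcDNA against untreated wells gave EC50 and EC90 by 4-parameter fit. Viability (CC50) came from ATP luminescence on parallel plates incubated 4 days.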

With CCN(C(=O)Nc1ccc(F)c(Cl)c1)C(C)c1cnc(OC)c2ccccc12 (single isomer, unassigned) [Compound 23, 3-(3-Chloro-4-fluorophenyl)-1-ethyl-1-(1-(1-methoxyisoquinolin-4-yl)ethyl)urea] as the compound, how does the EC50 read?
Its EC50 is 0.27 µM.

With CC(c1c[nH]c(=O)c2ccccc12)N(CC1CC1)C(=O)Nc1ccc(F)c(Cl)c1 (single isomer, unassigned) [Compound 86, 3-(3-Chloro-4-fluorophenyl)-1-(cyclopropylmethyl)-1-(1-(1-oxo-1,2-dihydroisoquinolin-4-yl)ethyl)urea] as the compound, how does the EC50 read?
Its EC50 is 0.02 µM.

Which EC50 does the source give for CC(=O)N1CCC(CN(C(=O)Nc2ccc(F)c(Cl)c2)C(C)c2c[nH]c(=O)c3ccccc23)CC1 (single isomer, unassigned) [Compound 201, 1-((1-Acetylpiperidin-4-yl)methyl)-3-(3-chloro-4-fluorophenyl)-1-(1-(1-oxo-1,2-dihydroisoquinolin-4-yl)ethyl)urea] here?
Its EC50 is 0.22 µM.

Which EC50 does the source give for CNC(=O)CCN(C(=O)Nc1ccc(F)c(Cl)c1)C(C)c1c[nH]c(=O)c2ccccc12 (single isomer, unassigned) [Compound 117, 3-(3-(3-Chloro-4-fluorophenyl)-1-(1-(1-oxo-1,2-dihydroisoquinolin-4-yl)ethyl)ureido)-N-methylpropanamide] here?
Its EC50 is 13 µM.

Which EC50 does the source give for CCn1cc(C(C)N(C)C(=O)Nc2ccc(F)c(Cl)c2)c2ccccc2c1=O (single isomer, unassigned) [Compound 183, 3-(3-Chloro-4-fluorophenyl)-1-(1-(2-ethyl-1-oxo-1,2-dihydroisoquinolin-4-yl)ethyl)-1-methylurea] here?
Its EC50 is 18 µM.

CC(c1cnc(NCCO)c2ccccc12)N(C)C(=O)Nc1ccc(F)c(Cl)c1 (single isomer, unassigned) [Compound 242, 3-(3-Chloro-4-fluorophenyl)-1-(1-(1-((2-hydroxyethyl)amino)isoquinolin-4-yl)ethyl)-1-methylurea] was tested. Which EC50 did it give?
Its EC50 is 0.17 µM.

With Cc1cc(NC(=O)N(C)C(C)c2c(C)[nH]c(=O)c3ccccc23)ccc1F (single isomer, unassigned) [Compound 236, 3-(4-Fluoro-3-methylphenyl)-1-methyl-1-(1-(3-methyl-1-oxo-1,2-dihydroisoquinolin-4-yl)ethyl)urea] as the compound, how does the EC50 read?
The EC50 was 0.41 µM.

same assay, conditions: HepDE19 assay, inhibition of formation of relaxed circular DNA (rcDNA), bDNA quantitation; read-out: DE-19bDNA EC50

CC(c1c[nH]c(=O)c2c(F)c(F)ccc12)N(C)C(=O)Nc1ccc(F)c(C(F)F)c1 (single isomer, unassigned) [Compound 503, 1-(1-(7,8-Difluoro-1-oxo-1,2-dihydroisoquinolin-4-yl)ethyl)-3-(3-(difluoromethyl)-4-fluorophenyl)-1-methylurea] was tested. Which EC50 did it give?
Its EC50 is 0.86 µM.

With CC(c1cn(C)c(=O)c2cc(F)c(F)cc12)N(C)C(=O)Nc1ccc(F)c(Cl)c1 (single isomer, unassigned) [Compound 341, 3-(3-Chloro-4-fluorophenyl)-1-(1-(6,7-difluoro-2-methyl-1-oxo-1,2-dihydroisoquinolin-4-yl)ethyl)-1-methylurea] as the compound, how does the EC50 read?
Its EC50 is 0.011 µM.

Which EC50 does the source give for CC(c1c[nH]c(=O)c2cc(F)c(F)cc12)N(C)C(=O)NCc1ccc(F)c(F)c1 (single isomer, unassigned) [Compound 477, 1-(1-(6,7-Difluoro-1-oxo-1,2-dihydroisoquinolin-4-yl)ethyl)-3-(3,4-difluorobenzyl)-1-methylurea] here?
The EC50 was 10 µM.

How did the EC50 turn out when CC(c1c[nH]c(=O)c2cc(F)c(F)cc12)N(C)C(=O)NCc1ccc(F)c(Cl)c1 (single isomer, unassigned) [Compound 484, 3-(3-Chloro-4-fluorobenzyl)-1-(1-(6,7-difluoro-1-oxo-1,2-dihydroisoquinolin-4-yl)ethyl)-1-methylurea] was run?
Its EC50 is 14 µM.

Which EC50 does the source give for CC(c1c[nH]c(=O)c2cc(F)c(F)cc12)N(C)C(=O)Nc1ccc(F)c(C(F)F)c1 (single isomer, unassigned) [Compound 501, 1-(1-(6,7-Difluoro-1-oxo-1,2-dihydroisoquinolin-4-yl)ethyl)-3-(3-(difluoromethyl)-4-fluorophenyl)-1-methylurea] here?
Its EC50 is 0.73 µM.

Which EC50 does the source give for CC(c1c[nH]c(=O)c2c(F)c(F)ccc12)N(C)C(=O)NCc1ccc(F)c(F)c1 (single isomer, unassigned) [Compound 489, 1-(1-(7,8-Difluoro-1-oxo-1,2-dihydroisoquinolin-4-yl)ethyl)-3-(3,4-difluorobenzyl)-1-methylurea] here?
The EC50 was 19 µM.

How did the EC50 turn out when CCN(C(=O)Nc1ccc(F)c(F)c1)C(C)c1c[nH]c(=O)c2cc(F)c(F)cc12 (single isomer, unassigned) [Compound 423, 1-(1-(6,7-Difluoro-1-oxo-1,2-dihydroisoquinolin-4-yl)ethyl)-3-(3,4-difluorophenyl)-1-ethylurea] was run?
The EC50 was 0.021 µM.

For CC(c1c[nH]c(=O)c2c(F)c(F)ccc12)N(C)C(=O)Nc1ccc2cc[nH]c2c1 (single isomer, unassigned) [Compound 498, 1-(1-(7,8-Difluoro-1-oxo-1,2-dihydroisoquinolin-4-yl)ethyl)-3-(1H-indol-6-yl)-1-methylurea], which EC50 is on record?
Its EC50 is 11 µM.

With CC(c1c[nH]c(=O)c2c(F)c(F)ccc12)N(C)C(=O)NCc1ccc(F)c(Cl)c1 (single isomer, unassigned) [Compound 496, 3-(3-Chloro-4-fluorobenzyl)-1-(1-(7,8-difluoro-1-oxo-1,2-dihydroisoquinolin-4-yl)ethyl)-1-methylurea] as the compound, how does the EC50 read?
Its EC50 is 7.7 µM.

CC(c1c[nH]c(=O)c2c(F)cc(F)cc12)N(C)C(=O)Nc1ccc(F)cc1 (single isomer, unassigned) [Compound 370, 1-(1-(6,8-Difluoro-1-oxo-1,2-dihydroisoquinolin-4-yl)ethyl)-3-(4-fluorophenyl)-1-methylurea] was tested. Which EC50 did it give?
Its EC50 is 5.6 µM.

With CC(c1c[nH]c(=O)c2c(F)c(F)ccc12)N(C)C(=O)Nc1cc(Cl)c(F)c(Cl)c1 (single isomer, unassigned) [Compound 451, 3-(3,5-Dichloro-4-fluorophenyl)-1-(1-(7,8-difluoro-1-oxo-1,2-dihydroisoquinolin-4-yl)ethyl)-1-methylurea] as the compound, how does the EC50 read?
Its EC50 is 3.2 µM.

With CC(c1cn(C)c(=O)c2cc(F)ccc12)N(C)C(=O)Nc1ccc(F)c(Cl)c1 (single isomer, unassigned) [Compound 302, 3-(3-Chloro-4-fluorophenyl)-1-(1-(7-fluoro-2-methyl-1-oxo-1,2-dihydroisoquinolin-4-yl)ethyl)-1-methylurea] as the compound, how does the EC50 read?
The EC50 was 3.3 µM.

same assay, conditions: Hepatitis B virus, HepDE19, HepDE19 assay, inhibition of formation of rcDNA; read-out: DE-19bDNA EC50

With CCCN(C(=O)Nc1ccc(F)c(Cl)c1)[C@H](C)c1c[nH]c(=O)c2ccccc12 [Compound 35, (R)-3-(3-Chloro-4-fluorophenyl)-1-(1-(1-oxo-1,2-dihydroisoquinolin-4-yl)ethyl)-1-propylurea] as the compound, how does the EC50 read?
The EC50 was 0.01 µM.

With CCCN(Cc1c[nH]c(=O)c2ccccc12)C(=O)Nc1ccc(F)c(Cl)c1 [Compound 28, 3-(3-Chloro-4-fluorophenyl)-1-((1-oxo-1,2-dihydroisoquinolin-4-yl)methyl)-1-propylurea] as the compound, how does the EC50 read?
Its EC50 is 0.06 µM.

For COc1ncc(CN(C(=O)Nc2ccc(F)c(Cl)c2)C(C)C)c2ccccc12 [Compound 19, 3-(3-Chloro-4-fluorophenyl)-1-isopropyl-1-((1-methoxyisoquinolin-4-yl)methyl)urea], which EC50 is on record?
Its EC50 is 2.1 µM.

For CC(c1c[nH]c(=O)c2ccncc12)N(C)C(=O)Nc1ccc(F)c(Cl)c1 (stereo not drawn) [Compound 127, 3-(3-chloro-4-fluorophenyl)-1-methyl-1-(1-(1-oxo-1,2-dihydro-2,6-naphthyridin-4-yl)ethyl)urea], which EC50 is on record?
The EC50 was 1 µM.

same assay, conditions: Hepatitis B virus, HepDE19, HepDE19 assay, inhibition of formation of relaxed circular DNA (rcDNA), bDNA quantitation; read-out: DE-19bDNA EC50

With CC(c1c[nH]c(=O)c2c(F)cc(F)cc12)N(CCCO)C(=O)Nc1ccc(F)c(Cl)c1 (stereo not drawn) [Compound 373, 3-(3-Chloro-4-fluorophenyl)-1-(1-(6,8-difluoro-1-oxo-1,2-dihydroisoquinolin-4-yl)ethyl)-1-(3-hydroxypropyl)urea] as the compound, how does the EC50 read?
The EC50 was 2.6 µM.

CC(c1c[nH]c(=O)c2ccccc12)N(Cc1cncnc1)C(=O)Nc1ccc(F)c(Cl)c1 (single isomer, unassigned) [Compound 320, 3-(3-Chloro-4-fluorophenyl)-1-(1-(1-oxo-1,2-dihydroisoquinolin-4-yl)ethyl)-1-(pyrimidin-5-ylmethyl)urea] was tested. Which EC50 did it give?
The EC50 was 13 µM.

same assay, conditions: Hepatitis B virus, HepDE19, read-out: DE-19bDNA EC50 (μM), HepDE19 assay, inhibition of formation of relaxed circular DNA (rcDNA), bDNA quantitation

CC(c1c[nH]c(=O)c2c(F)c(F)ccc12)N(C)C(=O)Nc1ccccc1F (single isomer, unassigned) [Compound 457, 1-(1-(7,8-Difluoro-1-oxo-1,2-dihydroisoquinolin-4-yl)ethyl)-3-(2-fluorophenyl)-1-methylurea] was tested. Which EC50 did it give?
The EC50 was 0.74 µM.

How did the EC50 turn out when CC(c1c[nH]c(=O)c2cc(F)c(F)cc12)N(C)C(=O)N[C@H](C)c1ccccc1 (single isomer, unassigned) [Compound 479] was run?
The EC50 was 9.4 µM.

same assay, conditions: read-out: DE-19bDNA EC50; HepDE19 assay, inhibition of formation of rcDNA

For CCN(C(=O)Nc1ccc(F)c(Cl)c1)C(c1c[nH]c(=O)c2ccccc12)C1CC1 (single isomer, unassigned) [Compound 49, 3-(3-Chloro-4-fluorophenyl)-1-(cyclopropyl(1-oxo-1,2-dihydroisoquinolin-4-yl)methyl)-1-ethylurea], which EC50 is on record?
The EC50 was 0.5 µM.

How did the EC50 turn out when CCCCN(C(=O)Nc1ccc(F)c(Cl)c1)C(C)c1c[nH]c(=O)c2ccccc12 (single isomer, unassigned) [Compound 84, 1-Butyl-3-(3-chloro-4-fluorophenyl)-1-(1-(1-oxo-1,2-dihydroisoquinolin-4-yl)ethyl)urea] was run?
Its EC50 is 0.01 µM.

same assay, conditions: read-out: DE-19bDNA EC50; HepDE19 assay, inhibition of formation of relaxed circular DNA (rcDNA), bDNA quantitation

How did the EC50 turn out when CC(c1c[nH]c(=O)c2cc(F)c(F)cc12)N(C)C(=O)Nc1cc(Cl)cc(Cl)c1 (single isomer, unassigned) [Compound 417, 3-(3,5-Dichlorophenyl)-1-(1-(6,7-difluoro-1-oxo-1,2-dihydroisoquinolin-4-yl)ethyl)-1-methylurea] was run?
Its EC50 is 0.14 µM.

From patent US20230045421A1 (priority 2018, published 2023)
